#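 In this assay, cells in 96-well plates receive the compound at five concentrations for 48 hours. Endpoints are linearly interpolated between the surrounding concentrations. GI50 is the concentration that inhibits growth by half. TGI denotes the concentration required for complete inhibition of growth.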
# Key:
# Assay in all cases: NCI tumour cell line growth inhibition, 48 h
# P388 leukemia = tested on: P388 leukemia
# KM20L2 colon = tested on: KM20L2 colon
# SN12K1 renal = tested on: SN12K1 renal
# DLD-1 colon = tested on: DLD-1 colon
# HS 578T breast = tested on: HS 578T breast
# P388/ADR leukemia = tested on: P388/ADR leukemia
# LXFL 529 NSCLC = tested on: LXFL 529 NSCLC
# RXF-631 renal = tested on: RXF-631 renal
SMILES,TGI (P388 leukemia) [µM],TGI (KM20L2 colon) [µM],TGI (SN12K1 renal) [µM],TGI (DLD-1 colon) [µM],TGI (HS 578T breast) [µM],other results
CSc1nc2c(ncn2C2OC(CO)C(O)C(O)C2O)c(=O)n1C (stereo not drawn),> 100,> 100,> 100,> 100,–,–
Nc1nc2cc(COc3ccc(C(=O)O)cc3)ccc2nc1-c1ccccc1,–,–,–,–,> 10,–
COc1cc(C2c3cc4c(cc3[C@@H](Nc3cnc5ccccc5c3)C3COC(=O)[C@H]23)OCO4)cc(OC)c1O (stereo partly drawn),0.374,–,2.08,3.69,–,TGI (P388/ADR leukemia): 1.36 µM
O=C(N/N=C/c1cc(Cl)cc(Cl)c1[O-])c1ccccc1O.O=C(N/N=C/c1cc(Cl)cc(Cl)c1[O-])c1ccccc1O.[Mn+2],–,–,–,–,–,GI50 (KM20L2 colon): 2780 nM
C=C1C(=O)OC2/C=C(CO)/C=C\C3OC3(C)CC(OC(=O)/C(C)=C/COC(C)=O)C12 (stereo not drawn),–,17,–,2.49,11.8,TGI (LXFL 529 NSCLC): 4.27 µM; TGI (RXF-631 renal): 12.1 µM
O=C1Nc2ccccc2C1(O)Cc1ccccn1 (stereo not drawn),–,–,–,–,> 100,–
C=C1C(=O)OC2/C=C(\CO)C3OC3C3OC3(C)CC(OC(=O)/C(=C/C)COC(C)=O)C12 (stereo not drawn),–,20.5,–,2.53,20.4,TGI (LXFL 529 NSCLC): 2.17 µM
O=c1c2cc([N+](=O)[O-])ccc2[nH]n1Cc1ccccc1Cl,–,–,–,–,> 100,–
O=C1Sc2sc(=S)sc2SC1c1ccccc1 (stereo not drawn),> 67.2,> 100,> 65.2,> 90.9,–,TGI (P388/ADR leukemia): > 67.7 µM
Cc1ccnn1CCc1ccc(Cl)cc1Cl,–,–,–,–,> 100,–
COc1cccc(/C=N/[N+](C)(C)C)c1O,–,–,–,–,> 10,–
CC1=CC2=C(C=O)C(=O)[C@](C)(O)[C@@H](O)C2=CO1,35.5,–,> 100,> 100,–,TGI (P388/ADR leukemia): 33.8 µM
CS(C)(=O)=Nn1c(=O)n2n(c1=O)[C@H]1CC[C@@H]2C1,–,–,–,–,> 100,–
Cc1c2cnccc2c(C)c2c1c1ccccc1n2CCCCCCCl,32.6,> 50,> 50,> 50,–,TGI (P388/ADR leukemia): > 50 µM
COc1ccc2[nH]c(=O)cc(C)c2c1[N+](=O)[O-],–,> 100,–,> 100,–,TGI (LXFL 529 NSCLC): > 100 µM; TGI (RXF-631 renal): > 100 µM
O=C(O)C(C1NCCS1)N1C(=O)c2ccccc2C1=O (stereo not drawn),–,–,–,–,> 100,–

# From PubChem BioAssay (NCI)
